What was measured:
Experiment in all cases: reverse glycosyl transfer
Assay type in all cases: biochemical
Conditions in all cases: 1 mM GDP, 1 mM MgCl2, pH 8.0, 30 °C; reverse reaction
NysDI-T2 = NysDI-T2 (Streptomyces noursei, UniProt Q9L4W6)
AmphDI = AmphDI (Streptomyces nodosus, UniProt Q93NW9)
NysDI = NysDI (Streptomyces noursei, UniProt Q9L4W6)

## C[C@@H]1[C@H](O)[C@@H](C)/C=C/C=C/C=C/C=C/C=C/C=C/C=C/[C@H](O[C@@H]2O[C@H](C)[C@@H](O)[C@H](N)[C@@H]2O)C[C@@H]2O[C@](O)(C[C@@H](O)C[C@@H](O)[C@H](O)CC[C@@H](O)C[C@@H](O)CC(=O)O[C@H]1C)C[C@H](O)[C@H]2C(=O)O [compound 1, amphotericin B]
NysDI-T2
  reverse glycosyl transfer (deglycosylation), RP-HPLC: reaction reversibility assessed in the presence of AmphDI, NysDI and NysDI-T2
AmphDI
  reverse glycosyl transfer (deglycosylation), RP-HPLC: reaction reversibility assessed in the presence of AmphDI, NysDI and NysDI-T2
NysDI
  reverse glycosyl transfer (deglycosylation), RP-HPLC: reaction reversibility assessed in the presence of AmphDI, NysDI and NysDI-T2
